Results from article PMC10322960 (European Journal of Drug Metabolism and Pharmacokinetics, 2023).

Test: Phase 1 clinical drug–drug interaction study, safety assessment
Type: in vivo, human
Conditions: Cohort 1, 12 subjects; mild in severity

With `CCC(C)n1ncn(-c2ccc(N3CCN(c4ccc(OCC5COC(Cn6cncn6)(c6ccc(Cl)cc6Cl)O5)cc4)CC3)cc2)c1=O` (centres unmarked) [itraconazole, reference compound] the “number of treatment-emergent AEs considered related to the drug” value was 5 and the “subjects with treatment-emergent AEs considered related to the drug” value was 16.7%.
